Source: ChEMBL document CHEMBL2074066, “Fluorescent substrates of sister-P-glycoprotein (BSEP) evaluated as markers of active transport and inhibition: evidence for contingent unequal binding sites” (Pharm Res, 2003)

Experiments:
Type in all cases: functional, cell-based
Bile salt export pump [1] = molecular target: T1, Bile salt export pump (Homo sapiens, UniProt O95342); assay: TP_TRANSPORTER: inhibitory effect of typical BSEP inhibitors (Verapamil & Cyclosporin A) in SK-E2 cells (expressing BSEP)
Bile salt export pump [2] = molecular target: T1, Bile salt export pump; assay: TP_TRANSPORTER: increase in dihydrofluorescein intracellular accumulation (dihydrofluorescein: 1 uM) in SK-E2 cells (expressing BSEP); conditions: for Activity: sk-e2
Bile salt export pump [3] = molecular target: T1, Bile salt export pump; assay: TP_TRANSPORTER: increase in bodipy intracellular accumulation (Bodipy: 0.2 uM) in SK-E2 cells (expressing BSEP); conditions: for Activity: human, sk-e2

T1 sequence (O95342 whole entry): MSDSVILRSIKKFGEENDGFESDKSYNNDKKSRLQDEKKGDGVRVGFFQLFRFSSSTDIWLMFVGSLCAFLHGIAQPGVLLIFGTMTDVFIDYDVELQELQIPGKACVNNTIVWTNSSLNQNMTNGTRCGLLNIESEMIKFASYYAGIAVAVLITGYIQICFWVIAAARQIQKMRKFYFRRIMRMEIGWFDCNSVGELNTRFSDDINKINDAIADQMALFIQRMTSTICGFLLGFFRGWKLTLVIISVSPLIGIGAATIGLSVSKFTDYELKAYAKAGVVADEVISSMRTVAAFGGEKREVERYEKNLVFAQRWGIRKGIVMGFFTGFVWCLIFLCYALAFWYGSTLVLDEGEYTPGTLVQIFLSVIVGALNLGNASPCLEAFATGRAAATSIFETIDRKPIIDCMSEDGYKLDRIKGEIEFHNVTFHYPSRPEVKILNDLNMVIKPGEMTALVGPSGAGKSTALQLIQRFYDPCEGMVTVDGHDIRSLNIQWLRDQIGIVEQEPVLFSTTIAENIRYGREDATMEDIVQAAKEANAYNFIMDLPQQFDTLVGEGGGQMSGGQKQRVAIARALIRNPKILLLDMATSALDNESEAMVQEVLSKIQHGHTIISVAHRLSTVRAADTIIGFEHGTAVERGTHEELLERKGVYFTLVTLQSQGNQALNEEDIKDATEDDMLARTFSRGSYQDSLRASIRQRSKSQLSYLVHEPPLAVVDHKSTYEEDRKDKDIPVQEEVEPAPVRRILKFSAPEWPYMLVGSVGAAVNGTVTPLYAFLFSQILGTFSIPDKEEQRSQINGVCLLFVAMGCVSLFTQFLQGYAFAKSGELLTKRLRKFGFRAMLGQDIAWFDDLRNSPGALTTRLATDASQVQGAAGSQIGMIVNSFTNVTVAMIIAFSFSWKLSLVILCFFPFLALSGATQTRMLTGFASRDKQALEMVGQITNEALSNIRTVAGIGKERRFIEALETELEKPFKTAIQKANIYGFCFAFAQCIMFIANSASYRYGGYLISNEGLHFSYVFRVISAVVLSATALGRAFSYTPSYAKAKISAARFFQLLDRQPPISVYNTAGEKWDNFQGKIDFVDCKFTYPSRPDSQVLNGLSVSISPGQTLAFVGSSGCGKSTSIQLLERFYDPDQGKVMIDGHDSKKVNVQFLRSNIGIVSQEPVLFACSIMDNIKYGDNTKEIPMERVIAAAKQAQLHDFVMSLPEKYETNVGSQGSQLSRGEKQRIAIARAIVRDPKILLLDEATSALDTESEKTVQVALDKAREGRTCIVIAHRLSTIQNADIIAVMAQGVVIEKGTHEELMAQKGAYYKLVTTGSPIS

SMILES	Activity (Bile salt export pump [1])	IC50 (Bile salt export pump [2]) [µM]	also measured
O=C(O)c1ccccc1C1c2ccc(O)cc2Oc2cc(O)ccc21 [FLUORESCIN]	substrate [+]		
CO[C@H]1/C=C/O[C@@]2(C)Oc3c(C)c(O)c4c(O)c(cc(O)c4c3C2=O)NC(=O)/C(C)=C\C=C\[C@H](C)[C@H](O)[C@@H](C)[C@@H](O)[C@@H](C)[C@H](OC(C)=O)[C@@H]1C [RIFAMYCIN]		12.2	IC50 (Bile salt export pump [3]): 206 µM
CCN1C(=C/C=C/c2n(CC)c3cc(Cl)c(Cl)cc3[n+]2CC)N(CC)c2cc(Cl)c(Cl)cc21.[I-]	is not a substrate [-]		
CN(C)c1ccc2c(-c3ccc(CCl)cc3)c3ccc(=[N+](C)C)cc-3oc2c1.[Br-] [TETRAMETHYLROSAMINE]	is not a substrate [-]		
CC(C)/N=c1\cc2n(-c3ccc(Cl)cc3)c3ccccc3nc-2cc1Nc1ccc(Cl)cc1 [CLOFAZIMINE]		28.7	
COC(=O)[C@H]1[C@H]2C[C@@H]3c4[nH]c5cc(OC)ccc5c4CCN3C[C@H]2C[C@@H](OC(=O)c2cc(OC)c(OC)c(OC)c2)[C@@H]1OC [RESERPINE]		10.2	Activity (Bile salt export pump [3]): is not an inhibitor [-]
CN/C(=N/CCSCc1nc[nH]c1C)NC#N [CIMETIDINE]			Activity (Bile salt export pump [2]): is not an inhibitor [-]; Activity (Bile salt export pump [3]): is not an inhibitor [-]
CC(=O)Oc1cc2c(cc1Cl)C(c1c(C(=O)O)cccc1C(=O)O)c1cc(Cl)c(OC(C)=O)cc1O2.CC(=O)Oc1cc2c(cc1Cl)C(c1cc(C(=O)O)ccc1C(=O)O)c1cc(Cl)c(OC(C)=O)cc1O2	is not a substrate [-]		
COc1cccc2c1C(=O)c1c(O)c3c(c(O)c1C2=O)C[C@@](O)(C(=O)CO)C[C@@H]3O[C@H]1C[C@H](N)[C@H](O)[C@H](C)O1 [DOXORUBICIN]	is not a substrate [-]		
C[C@H](CCC(=O)NCCS(=O)(=O)O)[C@H]1CC[C@H]2[C@@H]3CC[C@@H]4C[C@H](O)CC[C@]4(C)[C@H]3CC[C@]12C [TAUROLITHOCHOLIC ACID]		189	Activity (Bile salt export pump [3]): is not an inhibitor [-]
CCOc1ccc(-c2nc3cc(-c4nc5cc(N6CCN(C)CC6)ccc5[nH]4)ccc3[nH]2)cc1	is not a substrate [-]		
COC(=O)c1ccccc1-c1c2ccc(=N)cc-2oc2cc(N)ccc12.Cl [RHODAMINE123]	is not a substrate [-]		
CC[C@]1(O)C[C@@H]2CN(CCc3c([nH]c4ccccc34)[C@@](C(=O)OC)(c3cc4c(cc3OC)N(C)[C@H]3[C@@](O)(C(=O)OC)[C@H](OC(C)=O)[C@]5(CC)C=CCN6CC[C@]43[C@@H]65)C2)C1 [VINBLASTINE]		62	IC50 (Bile salt export pump [3]): 115 µM
CC(C)[C@@H]1NC(=O)[C@H](C)OC(=O)[C@@H](C(C)C)NC(=O)[C@@H](C(C)C)OC(=O)[C@H](C(C)C)NC(=O)[C@H](C)OC(=O)[C@@H](C(C)C)NC(=O)[C@@H](C(C)C)OC(=O)[C@H](C(C)C)NC(=O)[C@H](C)OC(=O)[C@@H](C(C)C)NC(=O)[C@@H](C(C)C)OC1=O [VALINOMYCIN]		7.2	Activity (Bile salt export pump [3]): is not an inhibitor [-]
CC[n+]1cc(N(C)C)cc2ccc(/C=C/C=C/c3ccc(N(C)C)cc3)cc21	is not a substrate [-]		
Cc1c(C)c2c(c(C)c1O)CCC(C)(COc1ccc(CC3SC(=O)NC3=O)cc1)O2 (centres undefined) [TROGLITAZONE]		66.4	
C=C[C@H]1C[N@@]2CC[C@H]1C[C@@H]2[C@@H](O)c1ccnc2ccc(OC)cc12 [QUINIDINE]			Activity (Bile salt export pump [2]): is not an inhibitor [-]
O=C(CI)Nc1ccc(-c2c3ccc(=O)cc-3oc3cc(O)ccc23)c(C(=O)O)c1 [5-Iodoacetamidofluorescein]	is not a substrate [-]		
CC(=O)OCOC(=O)CN(CC(=O)OCOC(C)=O)c1ccc(C)cc1OCCOc1cc(-c2c3cc(Cl)c(=O)cc-3oc3cc(OCOC(C)=O)c(Cl)cc23)ccc1N(CC(=O)OCOC(C)=O)CC(=O)OCOC(C)=O	is not a substrate [-]		
CN(CCOC(=O)CI)c1ccc([N+](=O)[O-])c2nonc12	is not a substrate [-]		
Cc1cc(C)n2c1C=C1C=CC(CCCCCCCCCCCC(=O)OC3CC[C@@]4(C)C(=CC[C@@H]5[C@@H]4CC[C@]4(C)C(C(C)CCCC(C)C)CC[C@@H]54)C3)=[N+]1[B-]2(F)F (some centres undefined) [CHOLESTERYL BODIPY FL C12]	is not a substrate [-]		
O=C1OC2(c3ccc(O)cc3Oc3cc(O)ccc32)c2ccccc21 [FLUORESCEIN]	substrate [+]		
CN(C)CCCN1c2ccccc2Sc2ccc(Cl)cc21 [CHLORPROMAZINE]		33.5	IC50 (Bile salt export pump [3]): 30.9 µM
COc1cccc2c1C(=O)c1c(O)c3c(c(O)c1C2=O)C[C@@](O)(C(C)=O)C[C@@H]3O[C@H]1C[C@H](N)[C@H](O)[C@H](C)O1 [DAUNORUBICIN]	is not a substrate [-]		
CC(=O)OCOC(=O)CN(CC(=O)OCOC(C)=O)Cc1c(OC(C)=O)ccc2c1Oc1c(ccc(OC(C)=O)c1CN(CC(=O)OCOC(C)=O)CC(=O)OCOC(C)=O)C21OC(=O)c2ccccc21	is not a substrate [-]		
O=C(O[C@@H]1Cc2c(O)cc(O)cc2O[C@@H]1c1cc(O)c(O)c(O)c1)c1cc(O)c(O)c(O)c1 [EPIGALOCATECHIN GALLATE]			Activity (Bile salt export pump [2]): is not an inhibitor [-]; IC50 (Bile salt export pump [3]): 214 µM
